# “And” between values parts separate entries of the source, which are not always exact repeats. Identical values can stand only once.
# Test system: BDF1 mice, Adenocarcinoma 755 s.c., tumor weight T/C
# Experiment: NCI In Vivo Anticancer Drug Screen. Data for tumor model Adenocarcinoma 755 (subcutaneous) in B6D2F1 (BDF1) mice
# Settings: endpoint: mean tumor weight, schedule: Q01DX011 (ip), higher = larger tumour
# Summary of the method: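 Values express treated (T) relative to vehicle-dosed control (C) animals, based on survival or tumour size measured after compound treatment of mice bearing a transplanted tumour.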
compound,measurement,setting,value
CC(COS(C)(=O)=O)C(=O)N1CCN(C(=O)C(C)COS(C)(=O)=O)CC1 (configuration not stated),T/C,"dose: 28.0 mg/kg/injection, vehicle: methylcellulose (MC)",69 % of control
same,T/C,"dose: 57.0 mg/kg/injection, vehicle: methylcellulose (MC)",74 % of control
same,T/C,"dose: 113.0 mg/kg/injection, vehicle: methylcellulose (MC)",73 % of control
same,T/C,"dose: 225.0 mg/kg/injection, vehicle: methylcellulose (MC)",69 % of control
CC1NC(=O)NC1CCCCCC(=O)O (configuration not stated),T/C,"dose: 89.06 mg/kg/injection, vehicle: carboxymethylcellulose (CMC)",122 % of control
same,T/C,"dose: 125.0 mg/kg/injection, vehicle: carboxymethylcellulose (CMC)",75 % of control
same,T/C,"dose: 178.13 mg/kg/injection, vehicle: carboxymethylcellulose (CMC)",83 % of control
same,T/C,"dose: 250.0 mg/kg/injection, vehicle: carboxymethylcellulose (CMC)",49 % of control
same,T/C,"dose: 356.25 mg/kg/injection, vehicle: carboxymethylcellulose (CMC)",90 % of control
same,T/C,"dose: 500.0 mg/kg/injection, vehicle: carboxymethylcellulose (CMC)",68 % of control
same,T/C,"dose: 712.5 mg/kg/injection, vehicle: carboxymethylcellulose (CMC)",47 % of control
same,T/C,"dose: 1000.0 mg/kg/injection, vehicle: carboxymethylcellulose (CMC)",69 % of control
CS(=O)(=O)OCCC(=O)Nc1ccc(NC(=O)CCOS(C)(=O)=O)cc1,T/C,"dose: 46.0 mg/kg/injection, vehicle: methylcellulose (MC)",117 % of control
same,T/C,"dose: 91.0 mg/kg/injection, vehicle: methylcellulose (MC)",111 % of control
same,T/C,"dose: 183.0 mg/kg/injection, vehicle: methylcellulose (MC)",85 % of control
same,T/C,"dose: 375.0 mg/kg/injection, vehicle: methylcellulose (MC)",117 % of control
CSc1ncc(Br)c(=O)[nH]1,T/C,"dose: 15.0 mg/kg/injection, vehicle: methylcellulose (MC)",81 % of control
same,T/C,"dose: 31.0 mg/kg/injection, vehicle: methylcellulose (MC)",72 % of control
same,T/C,"dose: 250.0 mg/kg/injection, vehicle: methylcellulose (MC)",56 % of control
CCCCNS(=O)(=O)c1ncnc2nc[nH]c12,T/C,"dose: 2.0 mg/kg/injection, vehicle: carboxymethylcellulose (CMC)",115 % of control
same,T/C,"dose: 6.0 mg/kg/injection, vehicle: carboxymethylcellulose (CMC)",44 % of control
same,T/C,"dose: 12.0 mg/kg/injection, vehicle: carboxymethylcellulose (CMC)",13 % of control
Nc1nc(SCc2ccccc2F)c2ncn(C3OC(CO)C(O)C3O)c2n1 (configuration not stated),T/C,"dose: 1.5 mg/kg/injection, vehicle: methylcellulose (MC)",106 % of control
same,T/C,"dose: 3.1 mg/kg/injection, vehicle: methylcellulose (MC)",41 % of control
same,T/C,"dose: 6.2 mg/kg/injection, vehicle: methylcellulose (MC)",7 % of control and 14 % of control
same,T/C,"dose: 12.5 mg/kg/injection, vehicle: methylcellulose (MC)",1 % of control
same,T/C,"dose: 25.0 mg/kg/injection, vehicle: methylcellulose (MC)",5 % of control

# From PubChem BioAssay AID180 (DTP/NCI, 2004)
